Assay results taken from patent EP3009422A1, “Photo-switchable sulfonylureas and their uses” (Ludwig-Maximilians-Universität München, priority 2014, dated 2016).
Entries after “also recorded” stand apart in the source; their conditions may differ.

Assays:
[1] = pKa measurement, absorbance-based platereader assay; type: physicochemical; details: DMSO/buffer mixture (1/1), pH 3.33-6.33, sigmoidal fitting, n = 3 assays
Description: Extinction coefficients were measured on a BMG Labtech Omega Series FLUOstar microplate reader with clear flat-bottom white 96 wellplates by full spectra acquirement in low K^+ external bath buffer (containing in mM: 3 KCl, 118 NaCl, 25 NaHCO3, 2 CaCl2, 1 MgCl2, 10 HEPES; NaOH to pH 7.4). All JB253-containing solutions (dilution series, n = 4: 10 nM; 100 nM; 1 µM; 10 µM; 25 µM; 50 µM) were background substracted and fitted with a linear slope. […] Full absorbance spectra (280-800 nm) were acquired and background subtracted before spectral differences were calculated. The total change of maximal positive and maximal negative difference was calculated and plotted against pH. Sigmoidal fit of the obtained plot gave access to the pKa.

[2] = system: islets; test: Cytotoxicity assay (calcein-AM / propidium iodide) in islets; type: cell-based; details: 1 hr incubation, n = 28 islets from four animals
Description: Islets were incubated with either DMSO or JB253 for 1 hr before staining with 3 µM of calcein-AM (live) and 2.5 µM of propidium iodide (dead). Absorbance/emission was detected at 491/525 nm and 561/620 nm for calcein and PI, respectively. The area of dead:live cells was calculated as a unitary ratio and the observer blinded to treatment identity.

[3] = system: Epac2A; test: Epac2-camps FRET imaging in HEK293t cells; type: cell-based; details: HEK293t cells expressing full length Epac2-camps; JB253 as cis-JB253 (excitation 440 nm)
Description: For EPAC2 imaging, HEK293t were transfected with the full length construct for […] containing the cAMP and sulfonylurea binding domains (obtained from Prof. […] Excitation was delivered at 440 nm and emitted signals captured using […] filters. FRET was calculated as the ratio of Cerulean (CFP):Venus (YFP) fluorescence. Signals were normalized using R/R0 where R is the ratio at a given timepoint and R0 is the minimum ratio.

[4] = system: isolated murine islets; test: Insulin secretion from isolated islets (static incubation, radioimmunoassay); type: cell-based, mouse
Description: Insulin secretion was measured from 6 islets per well, incubated at 37 °C for 30 min in 0.5 ml of Krebs-HEPES-bicarbonate (KHB) solution (containing in mM: 130 NaCl, 3.6 KCl, 1.5 CaCl2, 0.5 MgSO4, 0.5 NaH2PO4, 2 NaHCO3, 10 HEPES, and 0.1 % (wt/vol) BSA, pH 7.4) containing the indicated glucose concentration and tolbutamide (100 µM), glimeperide (50 µM), diazoxide (250 µM) and JB253 (50 µM). Illumination (λ = 405 ± 20 nm and 485 ± 6 nm) was performed using a Fluostar Optima microplate reader (BMG Labtech) set to deliver 30 s of light every 2 min to the designated wells. Insulin concentrations were determined in duplicate using specific radioimmunoassay (EMD Millipore).

[5] = system: human islets; test: Calcium imaging in isolated human islets of Langerhans; type: cell-based; details: human islets from three donors, 440 nm
Description: Human islets were isolated from deceased heart-beating donors (n = 3) at transplantation facilities in Pisa and Edmonton with the relevant national and local ethical permissions, including consent from next of kin where required, and cultured in RPMI supplemented with 5.5 mM D-glucose, 10% foetal calf serum (FCS), 100 U penicillin, 100 µg streptomycin and 0.25/µl fungizone (37 °C, 5% CO2). All studies involving human tissue were approved by the National Research Ethics Committee (NRES) London (Fulham), REC # 07/H0711/114.
Islets were loaded for 30-45 min in fluo2-AM (10 µM) or for 2-5 min with X-Rhod 1 (5 µM) diluted with a mixture of DMSO (0.01%, wt/vol) and pluronic acid (0.001%, wt/vol; all Invitrogen) in a bicarbonate buffer containing in mM: 120 NaCl, 4.8 KCl, 1.25 NaH2PO4, 24 NaHCO3, 2.5 CaCl2, 1.2 MgCl2 and 5 D-glucose. fMCI was performed using a Zeiss Axiovert M200 fitted with a Nipkow spinning-disk head (Yokogawa CSU-10) and a 10x/0.3NA objective adjusted for chromatic aberration (EC Plan-Neofluar, Zeiss). Pulsed excitation (frequency = 0.5 Hz; exposure = 263 ms) was delivered at 491 nm and emitted signals recorded at 500-550 nm with a back-illuminated 16-bit EM-CCD camera (ImageEM 9100-13; Hamamatsu). During recording, islets were maintained at 35-36 °C in the presence of 50 µM JB253 using a custom-manufactured perfusion and heating system (Digital Pixel). Drugs were introduced through the perfusion system at the indicated time points and concentrations. Violet light was delivered by a 405 ± 5 nm laser coupled to the side port of the microscope and configured to fill the back of the objective with light using an Optospot (Cairn Research). Blue light was delivered using 440 ± 5 nm and 491 ± 5 nm diode lasers controlled by a laser merge module (Spectral Applied Research) to allow simultaneous exposure and acquisition. […] Signals were normalized using F/Fmin where F is fluorescence at a given timepoint and Fmin is minimum fluorescence.

[6] = system: KATP channels; test: Whole cell patch clamp of KATP currents in MIN6 beta cells; type: cell-based; details: illumination 470 ± 20 nm, JB253 concentration printed as 10 mM
Description: MIN6 cells (obtained from Dr Jun-ichi Miyazaki, Osaka University, see Miyazaki et al., 1990)) were cultured in DMEM supplemented with 15% FBS, 1% glutamine, 2% HEPES buffer, 0.0005% β-mercaptoethanol and 1% penicillin/streptomycin. Cells were seeded onto glass coverslips 24 hrs before whole cell patch clamp experiments using micropipettes generated from thin-walled borosilicate capillaries (3-6 MΩ). Bath solution contained in mM: 3 KCl, 118 NaCl, 25 HEPES, 3 MgCl2 and 2 CaCl2. Pipette solution contained in mM: 150 KCl, 3 MgCl2, 5 EGTA, 10 HEPES, 0.3 K2ATP (pH 7.2), and the holding potential was -60 mV. Illumination was provided using a X-Cite 120 mercury arc lamp (Lumen Dynamics) with a bandpass filter (470 ± 20 nm). Voltage ramps from -20 mV to -120 mV (500 ms duration) were applied every 5 s to produce current-voltage relationships in the presence and absence of JB253. All cells lines were regularly mycoplasma tested.

CCN(CC)c1ccc(/N=N/c2ccc(S(=O)(=O)NC(=O)NC3CCCCC3)cc2)cc1 [JB253, (E)-N-(cyclohexylcarbamoyl)-4-((4-(diethylamino)phenyl)diazenyl)benzenesulfonamide]
pKa [1]: 4.76 | cytotoxicity to islets (necrosis indices, cell death versus DMSO-alone) [2]: did not appear to be cytotoxic | ΔR/R0 (decrease in FRET) [3]: 0.064 AU | insulin secreted following illumination ([4]; 50 µM JB253, 5 mM glucose, 405 nm or 485 nm, 30 min): 4-8 fold | insulin release in the dark versus control (5 mM glucose) ([4]; 50 µM JB253, dark, 30 min): similar | stimulation of insulin secretion compared with glimepiride ([4]; 485 nm light, JB253 50 µM, glimepiride 50 µM): equipotent to glimepiride | X-Rhod1-loaded cells responding with Ca^2+ rises [5]: ~62% | block of KATP (hyperpolarizing) currents [6]: reversibly blocked; also recorded: only blocks the KATP current during illumination
